Reference: patent publication US12109204B2, “Methods for treating muscular dystrophies” (The Regents of the University of California, priority 2018, dated 2024)

Columns and labels:
Type in all cases: cell-based, murine
UTRN, utrophin = test: UTRN gene expression by qPCR in C2C12 wild-type myotubes; conditions: C2C12 wild-type myotubes, 48 hours, normalized to β-actin (FIG. 12a)
Description: (§1) RNA from myotubes treated for 48 hours was extracted from cells using Trizol-based (Thermo Fisher Scientific) phase separation. RNA concentrations were determined using a NanoDrop 1000 (Thermo Fisher Scientific) and 750 ng of RNA in a 20 μl reaction was reverse transcribed using iScript cDNA synthesis (Bio-Rad) with the following cycling conditions: 25° C. for 5 minutes, 42° C. for 30 minutes, 85° C. for 5 minutes. For quantitative PCR, SsoFast EvaGreen Supermix (Bio-Rad), 400 nM of each optimized forward and reverse primer (for primer descriptions see Table 1), and cDNA corresponding to 37.5 ng RNA were used to amplify cDNA measured by Applied Biosystems 7300 (Thermo Fisher Scientific) with the following reaction conditions: 55° C. for 2 minutes, 95° C. for 2 minutes, 40 cycles of 95° C. for 10 seconds and 62° C. for 30 seconds, and dissociation stage. Each sample was run in triplicate. Data was analyzed using the ddCT method and normalized to reference gene, GAPDH or β-actin, with vehicle-treated samples serving as the calibrator (relative expression of vehicle control=1). C2C12 cells (American Type Culture Collection) were grown at 37° C. with 5% CO2 in growth media containing DMEM (Gibco) with 20% FBS (Sigma-Aldrich). Upon reaching confluency, the media was replaced with differentiation media containing DMEM with 2% horse serum (Sigma-Aldrich). […]

mdx myotubes = test: Fusion index in mdx myotubes; conditions: mdx myotubes (FIG. 12c-d)
MYOG, myogenin = test: MYOG gene expression by qPCR in C2C12 wild-type myotubes; conditions: 48 hours, normalized to β-actin (FIG. 12a)
Description: as §1

[1] = test system: hSSPN-EGFP myotubes (human sarcospan promoter reporter in C2C12); test: hSSPN-EGFP reporter myotube assay (high-content imaging)
Description: (§2) C2C12 immortalized murine myoblasts cultured in growth media consisting of DMEM (Gibco) with 20% Fetal Bovine Serum (Sigma-Aldrich) at 37° C. with 5% CO2 were transfected with the hSSPN-EGFP or hSSPN-Luciferase linearized plasmids using Lipofectamine 3000 Transfection Reagent (Thermo Fisher Scientific). Transfected cells were selected using 800 μg/ml of G418 (Sigma-Aldrich) for 4 weeks to generate stable cell lines expressing reporter protein under control of the human SSPN promoter.
hSSPN-EGFP myoblasts were seeded at 500 cells per well in 50 μl of growth media in 384-well black, clear bottom microplates (Greiner) using a Multidrop 384 (Thermo Fisher Scientific) and incubated for 3 days. Upon reaching confluency, the growth media was replaced with 50 μl of differentiation media consisting of DMEM with 2% horse serum (Sigma-Aldrich) using an EL406 combination washer dispenser (Biotek). At day 2 of differentiation, the media on the cells was aspirated, left with a residual volume of 10 μl, and replaced with 30 μl of fresh differentiation media. 0.5 μl of small molecule in DMSO or DMSO alone (for vehicle and positive control wells) was added to each well using a Biomek Fx (Beckman). To ensure proper mixing of the DMSO, 50 μl of additional differentiation media was added to all wells except the positive control treated wells, which instead received 50 μl of media containing insulin transferrin selenium (ITS, Gibco) to reach a final concentration of 1% ITS. The final concentration of drug in each treated well was 5.5 μM in 0.55% DMSO and 0.55% DMSO for vehicle and positive control treated wells. After 48 hours of incubation, the media was replaced with Fluorobrite DMEM (Gibco) and each plate was imaged using ImageXpress Micro Confocal High Content Imaging System (Molecular Devices). The fluorescent intensity of imaged cells was determined using MetaXpress Analysis software (Molecular Devices). Analysis setting were as follows: top hat (size: 12, filter shape: circle), adaptive threshold (source: top hat, minimum width: 10, maximum width: 800, intensity above local background: 500), filter mask (filter type: minimum area filter, minimum value: 500). […]

[2] = test system: hSSPN-Luciferase reporter cells (human sarcospan promoter reporter in C2C12); test: hSSPN-Luciferase reporter assay (Bright-Glo); conditions: doses between 3.9 nm to 1 μM, 48 hours (FIG. 10b)
Description: as §2
hSSPN-Luciferase myoblasts were cultured as described above. After 48 hours of treatment, plates were allowed to equilibrate to room temperature before the media was aspirated using an EL406 combination washer dispenser at room temperature. Bright-Glo luciferase assay system reagent (Promega) and differentiation media were added to cells at a 1:2 dilution using a Multidrop 384. After a 3-minute incubation at room temperature, luminescence signal was quantified using an Envision plate reader (PerkinElmer). The relative luminescence units were analyzed to determine fold change of treated over vehicle treated cells.
Cells were treated for 48 hours beginning at day 2 of differentiation with DMSO (vehicle control, ATCC), felodipine (Sigma), nilvadipine (Sigma), alloxazine (Sigma), GW5074 (Sigma), methylthioadenosine (Santa Cruz Biotechnology), or ezutromid (Cayman Chemicals) diluted in cell type specific differentiation media at doses listed in the figures. For gene expression studies, each treatment was performed in duplicate. For protein studies, each treatment was performed with single or double replicates.

CCOC(=O)C1=C(C)NC(C)=C(C(=O)OC)C1c1cccc(Cl)c1Cl (stereo not shown) [Felodipine, 5-O-ethyl 3-O-methyl 4-(2,3-dichlorophenyl)-2,6-dimethyl-1,4-dihydropyridine-3,5-dicarboxylate]
utrophin gene expression (UTRN, utrophin): increases | fusion index (nuclei in myosin heavy chain positive area/total nuclei in field) (mdx myotubes): does not increase fusion index | myogenin gene expression (MYOG, myogenin): increases | fluorescence intensity over vehicle, primary screen hit call ([1]; primary screen of 3,200 molecules, 5.5 μM, 48 hours, n=1, hit cutoff 1.4-fold): hits | hSSPN-EGFP RFU, Plate 1 ([1]; retest of screen hits at 5.5 μM, Plate 1, n=24 per plate): 1.4 RFU | hSSPN-EGFP RFU, Plate 2 ([1]; retest of screen hits at 5.5 μM, Plate 2, n=24 per plate): 1.4 RFU | hSSPN-Luciferase reporter activity, counterscreen [2]: increased activity
